Reference: PMC6834573, “Novel insights into transketolase activation by cofactor binding identifies two native species subpopulations” (Scientific Reports, 2019)

How the values were obtained:
[1] = biological target: T1, wild-type E. coli transketolase (TK; TKhigh / TKlow subpopulations) (Escherichia coli, UniProt P27302); assay: intrinsic fluorescence quenching (ex […] nm, em […] nm), double-Hill fit; type: binding; details: second site, 9 mM Mg2+, 50 mM Tris-HCl pH 7.0, 22 °C, 0.05 mg/mL TK, low-affinity subpopulation TKlow (chemically unmodified enzyme)
T1 construct: gene tktA; full length, N-terminal His6-tag kept, from plasmid pQR791 in E. coli XL10-gold; apo form after dialysis; homodimer; about one third oxidised (TKhigh), rest unmodified (TKlow)

[2] = biological target: T1, wild-type E. coli transketolase (TK; TKhigh / TKlow subpopulations); assay: as above; type: binding; details: read-out: Kd(high)
[3] = biological target: the molecule itself; assay: AUC; sedimentation velocity, apoTK at 0.2 mg/mL without Mg2+ and TPP, 20 °C, pH 7.0, 40,000 rpm, c(s) analysis with SEDFIT; dimer to monomers

T1 sequence (P27302 whole entry): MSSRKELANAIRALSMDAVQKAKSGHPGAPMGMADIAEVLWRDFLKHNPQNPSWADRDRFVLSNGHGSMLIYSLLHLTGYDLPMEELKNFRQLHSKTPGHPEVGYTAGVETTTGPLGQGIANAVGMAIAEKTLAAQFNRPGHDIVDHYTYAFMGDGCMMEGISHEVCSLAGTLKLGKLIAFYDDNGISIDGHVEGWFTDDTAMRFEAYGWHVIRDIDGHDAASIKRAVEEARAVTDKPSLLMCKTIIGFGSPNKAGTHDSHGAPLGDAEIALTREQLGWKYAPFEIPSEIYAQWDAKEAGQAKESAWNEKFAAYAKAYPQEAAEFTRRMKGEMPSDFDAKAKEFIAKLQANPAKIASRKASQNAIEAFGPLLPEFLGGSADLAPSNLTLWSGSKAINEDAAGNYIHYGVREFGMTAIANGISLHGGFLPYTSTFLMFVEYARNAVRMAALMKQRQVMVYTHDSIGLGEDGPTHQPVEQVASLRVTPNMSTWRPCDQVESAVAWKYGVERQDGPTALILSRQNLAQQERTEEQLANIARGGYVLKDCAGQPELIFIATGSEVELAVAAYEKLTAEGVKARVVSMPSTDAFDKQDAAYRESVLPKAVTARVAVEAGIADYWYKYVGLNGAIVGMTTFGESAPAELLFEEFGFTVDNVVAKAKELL

Row | Molecule | Kd(low) [1] | Kd [2] | stoichiometry N [3]
1 | Cc1ncc(C[n+]2csc(CCOP(=O)(O)OP(=O)(O)O)c2C)c(N)n1 [TPP, thiamine pyrophosphate] | 276000 ± 25000 nM | 2290 ± 230 nM | –
2 | Wild-type E. coli transketolase (apo-transketolase) (enzyme, Transketolase (EC 2.2.1.1) of E. coli, wild type; monomeric molecular weight 73035.5 g/mol as printed; The preparation is a mixture; By mass spectrometry about 31% carries one or two extra oxygen atoms (TKhigh, most likely Cys157 sulfenic or sulfinic acid) and the rest is unmodified (TKlow); also called TK; apoTK; source: E. coli XL10-gold, from the plasmid pQR791, purified, ultrafiltrated and …) SSRKELANAIRALSMDAVQKAKSGHPGAPMGMADIAEVLWRDFLKHNPQNPSWADRDRFVLSNGHGSMLIYSLLHLTGYDLPMEELKNFRQLHSKTPGHPEVGYTAGVETTTGPLGQGIANAVGMAIAEKTLAAQFNRPGHDIVDHYTYAFMGDGCMMEGISHEVCSLAGTLKLGKLIAFYDDNGISIDGHVEGWFTDDTAMRFEAYGWHVIRDIDGHDAASIKRAVEEARAVTDKPSLLMCKTIIGFGSPNKAGTHDSHGAPLGDAEIALTREQLGWKYAPFEIPSEIYAQWDAKEAGQAKESAWNEKFAAYAKAYPQEAAEFTRRMKGEMPSDFDAKAKEFIAKLQANPAKIASRKASQNAIEAFGPLLPEFLGGSADLAPSNLTLWSGSKAINEDAAGNYIHYGVREFGMTAIANGISLHGGFLPYTSTFLMFVEYARNAVRMAALMKQRQVMVYTHDSIGLGEDGPTHQPVEQVASLRVTPNMSTWRPCDQVESAVAWKYGVERQDGPTALILSRQNLAQQERTEEQLANIARGGYVLKDCAGQPELIFIATGSEVELAVAAYEKLTAEGVKARVVSMPSTDAFDKQDAAYRESVLPKAVTARVAVEAGIADYWYKYVGLNGAIVGMTTFGESAPAELLFEEFGFTVDNVVAKAKELL | – | – | 2
